From patent US12533348B2, “Ferroportin-inhibitors for the use in the treatment of transfusion-dependent beta-thalassemia (TDT)” (Vifor (International) AG, priority 2019, dated 2026)
“And” between values parts separate entries of the source, which are not always exact repeats. Identical values can stand only once.

Assays:
[1] = Combination study DFX/Fpn127: clinical observations, mortality and body weight; format: in vivo, mouse; details: for BW: th3/+ mice, mean
Description: (§1) One day after switching to lid a blood sample was taken by tail vein incision to determine the baseline Hb levels. Hb was measured using a HaemoCue® device. Hb was also measured on days 8, 15, and 22 in the morning before dosing. The animals were dosed p.o. D with 30 mg/kg DFX in 30% Kolliphor, 120 mg/kg Fpn127 in 0.5% C, or both for a total of 17 doses during the 23 days of study. 30% Kolliphor and 0.5% C were dosed as vehicles. The dose of DFX was administered at the beginning of the dark cycle (active phase) at 9:00 followed by 3 h of access to lid. Then, mice were dosed with Fpn127 (or 0.5% C) and were given access to sd for a 6 h period before switched back to lid. On the dosing was paused and mi had access to lid ad libitum.
Animals and their cages were checked daily by the experimenter during the study on working days. During the experimental phase, animals were weighted minimum once per week and scored according to their clinical symptoms: BW, general behavior and activity, appearance of hair coat, eyes, and nose. Clinical observations were recorded when present on separate score sheets.
BW was recorded once before the start of the experimental phase on day −1. During the experimental phase, individual BW were recorded 1 to 2 times per week to calculate the dosing volume and to monitor weight loss.

[2] = system: Hbb^th3/+ mouse model of β-thalassemia intermedia; experiment: Combination study: hemoglobin (HemoCue photometer); format: in vivo; details: th3/+ mice, DFX 30 mg/kg QD, Fpn127 120 mg/kg QD p.o., mean
Description: as §1
Hb was measured on days 1, 8, 15 and 22. Individual Hb values were determined at the starting day of the experiment (day 1) and weekly thereafter during the experimental phase in the morning before the first daily dose. A blood sample was taken by tail vein incision and Hb was measured using a HemoCue® DM201 Hb photometer.

[3] = system: Hbb^th3/+ mouse model of β-thalassemia intermedia; experiment: Combination study: erythroid differentiation stages in spleen by flow cytometry (Ter119/CD44/CD71); format: in vivo; details: percent of parent Ter119+ spleen cells; female th3/+ mice; DFX 30 mg/kg QD, Fpn127 120 mg/kg QD p.o.; end of study; mean
Text: Distinct stages of erythroid cell differentiation in spleens of female mice were identified by flow cytometry (CANTOII cytometer, BD Biosciences) using PE-conjugated rat anti-mouse CD71 (transferrin receptor-1, eBioscience, Cat. 12-0711), APC-conjugated rat anti-mouse Ter119 (erythroid lineage marker, eBioscience, Cat. 17-5921) and APC-Cy7-conjugated rat anti-mouse CD44 (adhesion molecule that progressively decreases on the surface of developing erythroid cells, BioLegend. Cat. 103028) antibodies. Data were analyzed using FlowJo® software (FlowJo. LLC, version 10.1) Serum Parameters

[4] = system: Hbb^th3/+ mouse model of β-thalassemia intermedia; experiment: Combination study: serum iron (MULTIGENT Iron assay), transferrin ELISA and calculated TSAT; format: in vivo; details: th3/+ mice, all animals, mean
Description: […] Anesthetized animals were subsequently euthanized by cervical dislocation.
Serum levels of iron were determined in triplicates using MULTIGENT Iron assay (Abbott Diagnostics, Cat. 6K95). Serum Transferrin (TO was measured in duplicates using a mouse-specific ELISA according to the manufacturer's instructions (Abcam, Cat. ab157724). Transferrin saturation (TSAT) was calculated using the formula: […]

[5] = Combination study: plasma concentrations of Fpn127 and DFX (LC-MS/MS); format: in vivo, mouse
Description: On day 23 (study end) 1 hour after dosing blood was collected by retro-orbital bleeding from pre-terminally anesthetized mice into BD Microtainer Tubes (Cat. 365967 and 365975) for determination of serum iron, transferrin, erythropoietin and compound exposure. Anesthetized animals were subsequently euthanized by cervical dislocation.
[formula] Serum EPO was measured using a mouse-specific DuoSet ELISA according to the manufacturer's instructions (R&D Systems, Cat. DY959). Plasma concentrations of Fpn127 and DFX were measured at GVK Biosciences, Hyderabad, IN. Flow Cytometric Analysis of Intracellular ROS, Mitochondria, and PS Exposure
Plasma was collected 1 hour after dosing of DFX on day 23 for determination of compound concentration by LC-MS/MS. Plasma exposure of DFX was similar in animals dosed with DFX alone or in combination with Fpn127 (FIG. 11, Table 12). […] As expected, plasma levels of Fpn127 were low as plasma was sampled approximately 20 h after the last dose of Fpn127.

[6] = system: Hbb^th3/+ mouse model of β-thalassemia intermedia; experiment: Combination study: flow cytometric analysis of intracellular ROS, mitochondria and PS exposure in mature RBC; format: in vivo; details: th3/+ mice, all animals; mature RBCs in whole blood at end of study (pre-terminally d22)
Description: In peripheral blood taken on day 22 by tail vein incision, ROS were detected with the indicator chloromethyl-2′,7′-dichlorodihydrofluorescein diacetate (CM-H2DCFDA, Invitrogen), the presence of mitochondria was detected with MitoTracker Deep Red FM (Invitrogen), and PS exposure was detected using the Annexin V Apoptosis Detection Kit (Invitrogen) in mature RBC labelled with Ter119 and CD71 antibodies.
For all analysis, cells were analyzed on a CANTOII cytometer (BD Biosciences) and data were analyzed using FlowJo® software (FlowJo, LLC, version 10.2).

[7] = system: Hbb^th3/+ mouse model of β-thalassemia intermedia; details: in vivo
Description: The aim of this study was to test whether the concurrent use of the iron chelator DFX administered once daily (QD) alone at 30 mg/kg or in combination with Fpn127 administered QD at 120 mg/kg for 3 weeks is causing any therapeutic interactions in a mouse model of β-thalassemia intermedia (Hbb^th3/+; B6; 129P—b1tm1Unc-b2tm1Unc/J, Jackson Laboratories, Stock Number: 002683).
Animals were euthanized 1 h after the last dose of DFX on study day 23 (dosing day 17).
On the final study day (day 23), spleen, liver, and kidneys were collected and snap frozen in liquid nitrogen for further analysis, as outlined below. Wet weight of spleen, liver, and kidneys were recorded.
Content of total Fe was determined in pieces of spleens, livers, and kidneys by ICP-OES in the Analytical Development group of Vifor (International) Ltd., St. Gallen.
Individual wet weights of organs were recorded. Individual values of total Fe were measured in livers, spleens, and kidneys. Individual values of total Fe content and concentration were calculated. Mean±SD of total Fe concentration and content in livers, spleens, and kidneys was calculated for each group.

With `O=C(O)c1ccc(-n2nc(-c3ccccc3O)nc2-c2ccccc2O)cc1` [DFX, deferasirox, reference compound] the “tolerability / clinical symptoms” value ([1]; Hbb^th3/+ mice, DFX 30 mg/kg QD, Fpn127 120 mg/kg QD p.o., 17 doses in 23 days) was “generally well tolerated”, the “BW by the end of the study vs vehicle treated Hbb^th3/+ mice” value ([1]; males) was “slightly but significantly lower BW” and the BW ([1]; DFX 30 mg/kg QD, Fpn127 120 mg/kg QD p.o., day 1, all animals) was 21.5 g. The BW ([1]; DFX 30 mg/kg QD, Fpn127 120 mg/kg QD p.o., day 1, females) was 19.2 ± 1.3 g and 19.2 g, the BW ([1]; DFX 30 mg/kg QD, Fpn127 120 mg/kg QD p.o., day 1, males) was 23.7 ± 1.3 g and 23.7 g and the BW ([1]; DFX 30 mg/kg QD, Fpn127 120 mg/kg QD p.o., day 3, all animals) was 23.2 g. It also gave a BW ([1]; DFX 30 mg/kg QD, Fpn127 120 mg/kg QD p.o., day 3, females) of 20.9 g, a BW ([1]; DFX 30 mg/kg QD, Fpn127 120 mg/kg QD p.o., day 3, males) of 25.6 g and a BW ([1]; DFX 30 mg/kg QD, Fpn127 120 mg/kg QD p.o., day 7, all animals) of 23.2 g. The BW ([1]; DFX 30 mg/kg QD, Fpn127 120 mg/kg QD p.o., day 7, females) was 21.0 g, the BW ([1]; DFX 30 mg/kg QD, Fpn127 120 mg/kg QD p.o., day 7, males) was 25.4 g and the BW ([1]; DFX 30 mg/kg QD, Fpn127 120 mg/kg QD p.o., day 10, all animals) was 22.9 g. It also gave a BW ([1]; DFX 30 mg/kg QD, Fpn127 120 mg/kg QD p.o., day 10, females) of 20.6 g, a BW ([1]; DFX 30 mg/kg QD, Fpn127 120 mg/kg QD p.o., day 10, males) of 25.2 g and a BW ([1]; DFX 30 mg/kg QD, Fpn127 120 mg/kg QD p.o., day 14, all animals) of 23.0 g. For the same molecule, the BW ([1]; DFX 30 mg/kg QD, Fpn127 120 mg/kg QD p.o., day 14, females) was 20.7 g, the BW ([1]; DFX 30 mg/kg QD, Fpn127 120 mg/kg QD p.o., day 14, males) was 25.2 g and the BW ([1]; DFX 30 mg/kg QD, Fpn127 120 mg/kg QD p.o., day 17, all animals) was 22.8 g. The BW ([1]; DFX 30 mg/kg QD, Fpn127 120 mg/kg QD p.o., day 17, females) was 20.4 g, the BW ([1]; DFX 30 mg/kg QD, Fpn127 120 mg/kg QD p.o., day 17, males) was 25.2 g and the BW ([1]; DFX 30 mg/kg QD, Fpn127 120 mg/kg QD p.o., day 22, all animals) was 23.3 g. For the same molecule, the BW ([1]; DFX 30 mg/kg QD, Fpn127 120 mg/kg QD p.o., day 22, females) was 20.8 g, the BW ([1]; DFX 30 mg/kg QD, Fpn127 120 mg/kg QD p.o., day 22, males) was 25.9 g and the Hb concentration ([2]; day 1 (before dosing), all animals) was 84 g/L. The Hb concentration ([2]; day 1 (before dosing), females) was 86 ± 2 g/L and 86 g/L, the Hb concentration ([2]; day 1 (before dosing), males) was 82 ± 3 g/L and 82 g/L and the Hb concentration ([2]; day 8, all animals) was 98 g/L. For the same molecule, the Hb concentration ([2]; day 8, females) was 99 g/L, the Hb concentration ([2]; day 8, males) was 96 g/L and the Hb concentration ([2]; day 15, all animals) was 81 g/L. It also gave a Hb concentration ([2]; day 15, females) of 82 g/L, a Hb concentration ([2]; day 15, males) of 80 g/L and a Hb concentration ([2]; day 22, all animals) of 86 g/L. For the same molecule, the Hb concentration ([2]; day 22, females) was 85 g/L, the Hb concentration ([2]; day 22, males) was 88 g/L and the “basophilic erythroblasts, frequency of parent” value [3] was 8.21%. For the same molecule, the “mature erythrocytes, frequency of parent” value [3] was 32.35%, the “orthochromatic erythroblasts, frequency of parent” value [3] was 23.48% and the “polychromatic erythroblasts, frequency of parent” value [3] was 23.90%. For the same molecule, the “pro-erythroblasts, frequency of parent” value [3] was 3.29%, the TSAT ([4]; calculated from Tf and serum iron, day 23, 1 h after last DFX dose, approx. 20 h after last Fpn127 dose) was 27.5% and the serum iron ([4]; day 23, 1 h after last DFX dose (30 mg/kg), approx. 20 h after last Fpn127 dose (120 mg/kg)) was 30.8 ± 5.9 µM and 30.8 µM. For the same molecule, the “plasma exposure of DFX, alone vs in combination with Fpn127” value ([5]; 1 hour after dosing of DFX on day 23 (FIG. 11)) was “similar”, the concentration at 1 h ([5]; both sexes, Hbb^th3/+ (B6; 129P—b1tm1Unc-b2tm1Unc/J), mouse, oral, 30 mg/kg, th3/+ mice, all animals, plasma collected 1 hour after dosing of DFX on day 23, LC-MS/MS, read-out: Plasma exposure of DFX at the end of the study (mean)) was 15400 ng/mL and the “% Annex in V-positive RBCs (mean)” value [6] was 0.47%. The “% Mito Tracker-positive RBCs (mean)” value [6] was 0.56%, the “% ROS-positive RBCs (mean)” value [6] was 41.56% and the “effect on kidney weight vs vehicle-treated Hbbth3/+ mice” value [7] was “no effect on kidney weight”. For the same molecule, the “effect on liver weight vs vehicle-treated Hbbth3/+ mice” value [7] was “no effect on liver weight”.
